Measured values published in patent US4593104A, “2-halo-N-(azole-1-yl-methyl)-substituted acetanilides” (BASF Aktiengesellschaft, priority 1976, dated 1986).
Where “and” joins values, the source holds several entries; their conditions need not be identical. Equal entries are not always repeated.

Legend:
Sorgh. bicol. = experiment: preemergence treatment in the greenhouse, % damage; assay type: in vivo, Sorghum bicolor
From the text: (§1) The vessels employed were plastic flowerpots having a volume of 300 cm^3; the substrate was a sandy loam containing about 1.5% humus. The seeds of the test plants (see Table 1) were sown shallow, and separated according to species. In the case of Cyperus esculentus, pregerminated tubers were planted. In the preemergence treatment, the active ingredients were then immediately applied to the surface of the soil. They were suspended or emulsified in water as the vehicle, and sprayed through atomizing nozzles. After the agents had been applied, the vessels were lightly sprinkler-irrigated to set germination and growth going, and to activate the chemical agents. The vessels were then covered with transparent plastic hoods until the plants had taken root. This cover ensured uniform germination of the test plants (to the extent that this was not impaired by the chemicals), and prevented readily volatile substances from evaporating.
(§2) For postemergence treatment, the plants were first grown to a height of from 3 to 10 cm, depending on their habit, before treated. Hoods were not placed on the pots. The experiments were set up in the greenhouse, hotter areas (25° to 40° C.) being preferred for heat-loving species, and 15° to 30° C. for plants from moderate climates. The experiments were carried out for from 4 to 6 weeks. During this period the plants were tended and their reaction to the various treatments was assessed. The following tables contain the substances investigated, the application rates in kg/ha of active ingredient, and the test plant species. Assessments were made on a 0 to 100 scale, 0 denoting no damage or normal emergence, and 100 denoting no emergence or complete destruction of at least the visible plant parts.

Cyper. escul. [1] = experiment: preemergence treatment in the greenhouse, % damage; assay type: in vivo, Cyperus esculentus
From the text: as §1, §2

Glyc. max [2] = experiment: preemergence application in the open, % damage; assay type: in vivo, Glycine max
Protocol: (§3) The experiments were carried out on small plots. The soil was a sandy loam having a pH of from 5 to 6 and containing from 1 to 1.5% humus. The treatment was preemergence, the active ingredients being applied immediately or at the latest 3 days after sowing. The crop plants were sown in rows. The weed flora was made up of the most widely varying species and was natural; the weed flora depended on the time of the year and in part on the crop (e.g., spring-germinating, summer-germinating). The substances were emulsified or suspended in water as the vehicle, and applied by means of a motor-driven plot spray mounted on a hitch. When no rain fell, the plots were watered to ensure germination and growth of the crop plants and weeds. All the experiments were run for several weeks. Over this period, assessments were made at certain intervals on the 0 to 100 scale.

Gossyp. hirs. = experiment: preemergence treatment in the greenhouse, % damage; assay type: in vivo, Gosspyium hirsutum
Summary of the method: (§4)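 Test species were sown separately in sandy loam and held at 25–40 °C (heat-loving) or 15–30 °C (temperate). Actives in water went onto the soil surface immediately (preemergence) or onto 3–10 cm plants (postemergence). A 0–100 scale rates emergence loss or destruction over 4–6 weeks.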

Matric. spp. [3] = experiment: preemergence treatment in the greenhouse, % damage; assay type: in vivo
Summary of the method: as §4

Poa annua = experiment: preemergence treatment in the greenhouse, % damage; assay type: in vivo
Summary of the method: as §4

Amar. retro. [4] = experiment: preemergence treatment in the greenhouse, % damage; assay type: in vivo
Summary of the method: as §4

Setaria spp. [5] = experiment: preemergence treatment in the greenhouse, % damage; assay type: in vivo
Summary of the method: as §4

Solanum nigrum = experiment: preemergence treatment in the greenhouse, % damage; assay type: in vivo
Summary of the method: as §4

Bromus spp. = experiment: preemergence treatment in the greenhouse, % damage; assay type: in vivo
Summary of the method: as §4

Sorgh. halep. = experiment: preemergence treatment in the greenhouse, % damage; assay type: in vivo
Summary of the method: as §4

Cyp. diff. = experiment: preemergence treatment in the greenhouse, % damage; assay type: in vivo
Summary of the method: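 Ratings, on a 0 to 100 scale, show injury where 100 means no emergence or complete destruction of visible parts. Compounds in water were sprayed either onto freshly sown soil, which was then watered and hooded, or onto plants 3–10 cm tall. Observation lasted 4–6 weeks.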

Zea mays = experiment: preemergence treatment in the greenhouse, % damage; assay type: in vivo
Summary of the method: as §4

Stell. med. [6] = experiment: preemergence treatment in the greenhouse, % damage; assay type: in vivo
Summary of the method: as §4

Alopec. myosur. [7] = experiment: preemergence treatment in the greenhouse, % damage; assay type: in vivo
Summary of the method: as §4

Euph. gen. = experiment: preemergence treatment in the greenhouse, % damage; assay type: in vivo
Summary of the method: as §4

Echin. c.g. [8] = experiment: preemergence treatment in the greenhouse, % damage; assay type: in vivo
Summary of the method: as §4

Chrys. seget. [9] = experiment: preemergence treatment in the greenhouse, % damage; assay type: in vivo
Summary of the method: as §4

Matric. spp. [10] = experiment: postemergence application in the greenhouse, % damage; assay type: in vivo
From the text: as §1, §2

Avena fat. = experiment: as above; assay type: in vivo
From the text: as §1, §2

Setaria spp. [11] = experiment: as above; assay type: in vivo
From the text: as §1, §2

Stell. med. [12] = experiment: as above; assay type: in vivo
From the text: as §1, §2

Alopec. myosur. [13] = experiment: as above; assay type: in vivo
From the text: as §1, §2

Chrys. seget. [14] = experiment: as above; assay type: in vivo
From the text: as §1, §2

Glyc. max [15] = experiment: preemergence treatment in the greenhouse, % damage; assay type: in vivo, Glycine max; settings: 0.25 kg/ha
Summary of the method: as §4

Stellaria media = experiment: preemergence application in the open, % damage; assay type: in vivo; settings: 2.0 kg/ha
Protocol: as §3

Amar. retro. [16] = experiment: preemergence application in the open, % damage; assay type: in vivo; settings: 1,0 kg/ha
Protocol: as §3

Anth./Matric. = experiment: preemergence application in the open, % damage; assay type: in vivo; settings: 2.0 kg/ha
Protocol: as §3

Chenop. spp. = experiment: preemergence application in the open, % damage; assay type: in vivo
Protocol: as §3

Brassica napus = experiment: preemergence application in the open, % damage; assay type: in vivo; settings: 2.0 kg/ha
Protocol: as §3

Galins. spp. = experiment: preemergence application in the open, % damage; assay type: in vivo
Protocol: as §3

Alopec. myosur. [17] = experiment: preemergence application in the open, % damage; assay type: in vivo; settings: 2.0 kg/ha
Protocol: as §3

Echin. c.g. [18] = experiment: preemergence application in the open, % damage; assay type: in vivo
Protocol: as §3

Cyper. escul. [19] = experiment: postemergence application in the greenhouse, % damage; assay type: in vivo, Cyperus esculentus
From the text: as §1, §2

[20] = one value printed for two rates (0.25 0.5 kg/ha)

CCc1cccc(CC)c1N(COC)C(=O)CCl [prior art, 2-chloro-2',6'-diethyl-N-methoxymethyl-acetanilide, reference compound]
% damage (Sorgh. bicol.; 1.0 kg/ha): 0% | % damage (Sorgh. bicol.; 2.0 kg/ha): 0% | % damage (Cyper. escul. [1]; 0.5 kg/ha): 40% | % damage (Cyper. escul. [1]; 1.0 kg/ha): 50% | % damage (Cyper. escul. [1]; 2.0 kg/ha): 60% | % damage (Glyc. max [2]; 0,1 kg/ha): 0% | % damage (Glyc. max [2]; 1,0 kg/ha): 0% | % damage (Gossyp. hirs.; 0.25 kg/ha): 0% | % damage (Gossyp. hirs.; 0.5 kg/ha): 0% | % damage (Gossyp. hirs.; 1.0 kg/ha): 20% and 10% | % damage (Gossyp. hirs.; 2.0 kg/ha): 40% | % damage (Matric. spp. [3]; 0.25 kg/ha): 50% | % damage (Matric. spp. [3]; 0.5 kg/ha): 80% | % damage (Matric. spp. [3]; 1.0 kg/ha): 90% | % damage (Poa annua; 0.125 kg/ha): 80% | % damage (Poa annua; 0.5 kg/ha): 15% | % damage (Amar. retro. [4]; 0.25 kg/ha): 72% and 80% | % damage (Amar. retro. [4]; 0.5 kg/ha): 100% and 80% | % damage (Amar. retro. [4]; 2.0 kg/ha): 100% and 50% | % damage (Amar. retro. [4]; [20]): 75% | % damage (Setaria spp. [5]; 0.25 kg/ha): 70% | % damage (Setaria spp. [5]; 0.5 kg/ha): 60% and 90% | % damage (Setaria spp. [5]; 1.0 kg/ha): 90% and 95% and 100% | % damage (Setaria spp. [5]; 2.0 kg/ha): 100% | % damage (Solanum nigrum; 0.25 kg/ha): 50% | % damage (Solanum nigrum; 0.5 kg/ha): 80% and 95% | % damage (Solanum nigrum; 1.0 kg/ha): 100% | % damage (Solanum nigrum; 2.0 kg/ha): 100% | % damage (Bromus spp.; 0.125 kg/ha): 50% | % damage (Bromus spp.; 0.25 kg/ha): 80% and 88% | % damage (Bromus spp.; 0.5 kg/ha): 90% | % damage (Bromus spp.; 1.0 kg/ha): 50% | % damage (Bromus spp.; 2.0 kg/ha): 70% | % damage (Sorgh. halep.; 0.125 kg/ha): 40% | % damage (Sorgh. halep.; 0.25 kg/ha): 38% and 50% and 30% | % damage (Sorgh. halep.; 0.5 kg/ha): 50% and 40% | % damage (Sorgh. halep.; 1.0 kg/ha): 70% | % damage (Cyp. diff.; 0.125 kg/ha): 65% | % damage (Cyp. diff.; 0.25 kg/ha): 70% and 100% | % damage (Cyp. diff.; 0.5 kg/ha): 100% | % damage (Cyp. diff.; 1.0 kg/ha): 100% | % damage (Cyp. diff.; [20]): 65% | % damage (Zea mays; 1.0 kg/ha): 0% | % damage (Zea mays; 2.0 kg/ha): 0% | % damage (Stell. med. [6]; 0.25 kg/ha): 20% | % damage (Stell. med. [6]; 0.5 kg/ha): 70% | % damage (Stell. med. [6]; 1.0 kg/ha): 70% | % damage (Alopec. myosur. [7]; 0.25 kg/ha): 40% | % damage (Alopec. myosur. [7]; 0.5 kg/ha): 80% | % damage (Alopec. myosur. [7]; 1.0 kg/ha): 80% | % damage (Euph. gen.; 0.5 kg/ha): 25% and 20% and 30% | % damage (Euph. gen.; 1.0 kg/ha): 45% and 50% | % damage (Euph. gen.; 2.0 kg/ha): 100% | % damage (Echin. c.g. [8]; 0.25 kg/ha): 95% | % damage (Echin. c.g. [8]; 0.5 kg/ha): 65% and 100% | % damage (Echin. c.g. [8]; 2.0 kg/ha): 95% and 90% | % damage (Chrys. seget. [9]; 0.25 kg/ha): 30% | % damage (Chrys. seget. [9]; 0.5 kg/ha): 0% | % damage (Matric. spp. [10]; 1.0 kg/ha): 50% | % damage (Matric. spp. [10]; 2.0 kg/ha): 50% | % damage (Avena fat.; 1.0 kg/ha): 50% | % damage (Avena fat.; 2.0 kg/ha): 70% | % damage (Setaria spp. [11]; 1.0 kg/ha): 68% | % damage (Setaria spp. [11]; 2.0 kg/ha): 68% | % damage (Stell. med. [12]; 1.0 kg/ha): 0% | % damage (Stell. med. [12]; 2.0 kg/ha): 30% | % damage (Alopec. myosur. [13]; 1.0 kg/ha): 60% | % damage (Alopec. myosur. [13]; 2.0 kg/ha): 60% | % damage (Chrys. seget. [14]; 1.0 kg/ha): 15% | % damage (Chrys. seget. [14]; 2.0 kg/ha): 15% | % damage (Glyc. max [15]): 10% | % damage (Stellaria media): 15% | % damage (Amar. retro. [16]): 80% | % damage (Anth./Matric.): 53% | % damage (Chenop. spp.; 0,1 kg/ha): 10% | % damage (Chenop. spp.; 1,0 kg/ha): 13% | % damage (Brassica napus): 5% | % damage (Galins. spp.; 0,1 kg/ha): 30% | % damage (Galins. spp.; 1,0 kg/ha): 55% | % damage (Alopec. myosur. [17]): 65% | % damage (Echin. c.g. [18]; 0,1 kg/ha): 65% | % damage (Echin. c.g. [18]; 1,0 kg/ha): 73% | % damage (Cyper. escul. [19]; 1.0 kg/ha): 42% | % damage (Cyper. escul. [19]; 2.0 kg/ha): 55%
